Data from BindingDB's records for doi:10.1016/j.bmc.2019.05.001 (2019).

Assay: Inhibition of mouse GAT2 expressed in HEK293 cells assessed as reduction in [3H]GABA uptake preincubated for 25 mins followed by [3H]GABA addition and measured after 10 mins by liquid scintillation counting method

O=C(O)C1CCN(CCON=Cc2ccccc2-c2ccc(Cl)cc2Cl)C1 (stereo unspecified)
IC50: 53.7 µM
